Measured values reported in patent US20100278835A1, “NOVEL COMPOUNDS 660” (ASTRAZENECA UK LIMITED, priority 2009, published 2010).
≈ marks a conversion by molar mass, not a printed value.

Experiments:
[1] = test system: RSV RSS strain; assay: ELISA assay of antiviral activity against RSV (reduction in RSV protein expression); type: cell-based; conditions: human respiratory syncytial virus, 72 h; Hep-2 cells infected with RSV RSS strain, multiplicity of infection 0.02, 3 days; concentration required to inhibit RSV protein expression by 50%
Description: The antiviral activity of these compounds against RSV was determined in an ELISA assay. […] ELISA assays were set up by seeding 96-well plates with 5×10^3 Hep-2 cells per well in 100 μl DMEM containing 10% FBS for 24 h. Compound dilutions were prepared in 0.5% DMSO and 50 μl/well was added to the assay plates, the plates were incubated at 37° C. in 5% CO2 for one hour. Cells were infected with 50 μl/well RSV RSS strain at a multiplicity of infection of 0.02 and were incubated at 37° C. in 5% CO2 for 3 days. Cells were then fixed and permeabilised with 75%/25% methanol acetone and blocked with 2% Marvel™, 0.05% Tween for one hour. Plates were then incubated in the presence of a 1:4000 dilution of […] polyclonal antibody (Millipore, AB1128) followed by a 1:1000 dilution of rabbit anti-goat, horseradish peroxidase (DAKO, PO449) labelled secondary antibody. The plates were developed with O-phenylenediamine in the presence of hydrogen peroxide. The antiviral activity of the compounds is presented as an IC50, the concentration required to inhibit RSV protein expression by 50%.

[2] = Thermodynamic solubility; type: physicochemical; conditions: aqueous buffer, thermodynamic from solid; 0.1M phosphate buffer pH 7.4, 25° C., 24 h, HPLC-UV
Description: A known amount of the test compound was stirred in 0.1M phosphate buffer pH 7.4 at constant temperature (25° C.) for 24 h. The supernatant was then separated from un-dissolved material by double centrifugation, and subsequently analysed and quantified against a standard of known concentration in DMSO using generic HPLC-UV methodology coupled with mass spectral peak identification. Data are also included for a reference quinazolin-2,4-dione derivative disclosed in WO 03/053344.

Structure (SMILES)	IC50 [1]	solubility thermodynamic at 24 h [2]
CC(C)CCn1c(CN2C(=O)N(C3CC3)C(C)c3ccccc32)nc2cc(CN)ccc21 (stereo not shown) [Example 20, 1-[[5-(aminomethyl)-1-isopentyl-benzimidazol-2-yl]methyl]-3-cyclopropyl-4-methyl-4H-quinazolin-2-one]	9.4 nM	654 µM (≈ 282 µg/mL)
CC(C)CCn1c(CN2C(=O)N(C3CC3)Cc3c(F)cccc32)nc2cc(CN)ccc21 [Example 23, 1-[[5-(aminomethyl)-1-isopentyl-benzimidazol-2-yl]methyl]-3-cyclopropyl-5-fluoro-4H-quinazolin-2-one]	7.7 nM	242 µM (≈ 105 µg/mL)
NCc1ccc2c(c1)nc(CN1C(=O)N(C3CC3)Cc3ccccc31)n2CCCC(F)(F)F [Example 28, 1-[[5-(Aminomethyl)-1-(4,4,4-trifluorobutyl)benzimidazol-2-yl]methyl]-3-cyclopropyl-4H-quinazolin-2-one]	0.5 nM	289 µM (≈ 132 µg/mL)

More lines, now with the values ahead:

IC50 [1]	solubility thermodynamic at 24 h [2]	Structure (SMILES)
3.2 nM	808 µM (≈ 348 µg/mL)	CC(C)CCn1c(CN2C(=O)N(C3CC3)Cc3ccccc32)nc2cc(C(=N)N)ccc21 [Example 35, 2-[(3-cyclopropyl-2-oxo-4H-quinazolin-1-yl)methyl]-1-isopentyl-benzimidazole-5-carboxamidine]
1.5 nM	831 µM (≈ 359 µg/mL)	Cc1cc2c(cc1CN)nc(CN1C(=O)N(C3CC3)Cc3ccccc31)n2CCC(C)C [Example 46, 1-[[5-(Aminomethyl)-1-isopentyl-6-methyl-benzimidazol-2-yl]methyl]-3-cyclopropyl-4H-quinazolin-2-one]
